# “Also recorded” adds a separate entry of the source. No end group written: not given here. Cy5Q = quencher
# Assays:
# parental SK-OV cells = assay: Nitroreductase assay, delivery of nitroreductase reporter, non-transfected cells; format: cell-based, Human; details: 10 μM, parental cell lines, FIG. 9
# Description: (§1) As disclosed in PCT/GB99/01746, the fluorescence properties of cyanine dyes may be modified by substitution of the dye with nitro, and/or dinitrobenzyl groups, which have the effect of reducing or abolishing the fluorescence from the molecule. An example of such a quenching or “dark” dye is Cy5Q (Amersham Pharmacia Biotech). In the presence of the enzyme, nitroreductase (NTR), a nitro-group substituent of Cy5Q may be converted to an amino-group, with the result that there is an increase in the fluorescence intensity of the dye. This may be used as the basis for an assay for the measurement of intracellular nitroreductase. In this example, Cy5Q is conjugated to a carrier peptide and is used as an indicator of nitroreductase (NTR) in whole, living cells.
# (§2) The assay may be carried out using cells transfected with DNA encoding the gene for bacterial NTR, such that when the Cy5Q conjugate is introduced into such a transfected cell line, an increase in fluorescence is measured. […]
# (§3) Cy5Q chemically linked to the carrier peptide Ac-Ala-Pro-Thr-Arg-Val-Leu-Pro-Pro-Leu-Val-Ala-Gly-Gly-Lys-amide was incubated with cells (30,000 cells/well) (1-5 hours, 5% CO2, 37° C., 95% humidity), cells washed (×3) with PBS and fluorescence measured from below, using a CytoFluor multi-well plate reader (Applied Biosystems), (activating at 610 nm, emission 670 nm). […]
# [1] = system: SK-OV-NTR cells (SK-OV-3 stably transfected with bacterial NTR genes); assay: Nitroreductase assay, delivery of nitroreductase reporter, transfected cells; format: cell-based, Human; details: 10 μM, 5 hour incubation
# Description: as §1, §2, §3
# NIH 3T3 = assay: Selective permeabilisation with digitonin (cytosolic vs organelle fraction fluorescence); format: cell-based, Mouse; details: 60 min incubation, 20 μM digitonin 3 min, FIG. 8
# Protocol: Mouse fibroblasts (NIH 3T3) were cultured at 1×10^6 cells/ml in DMEM (see above) on 24-well tissue culture plates (Costar Inc.). Cells were incubated with Cy3- labelled carrier peptides (H2N-Ala-Pro-Thr-Arg-Val-Pro-Leu-Pro-Leu-Pro-Val-Gly-Gly-Lys-OH (SEQ ID No.4); H2N-Ala-Pro-Thr-Arg-Ala-Val-Leu-Pro-Leu-Ala-Val-Gly-Gly-Lys-OH (SEQ ID No.5); H2N-Ala-Pro-Thr-Arg-Val-Leu-Pro-Pro-Leu-Val-Ala-Gly-Gly-Lys-OH (SEQ ID No.6); H2N-Ala-Pro-Thr-Arg-Val-Leu-Leu-Pro-Leu-Leu-Val-Gly-Gly-Lys-OH (SEQ ID No.7) for 60 minutes (5% CO2, 37° C., 95% humidity). Cells were washed (×4) with PBS, before addition of 20 μM digitonin for 3 minutes. Cells were rapidly centrifuged (10,000×g, for 5 minutes) to separate into supernatant (cytosolic) and pellet (organelle) fractions. The fluorescence activity was then measured using a CytoFluor multi-well plate reader (activating at 530 nm, emission 590 nm). Unlabelled cells (cells without dye), unlabelled Cy3 (unlinked dye) (Amersham Pharmacia Biotech), and, untreated cells (unpermeabilised cells without digitonin), were used as controls. […] Cytosolic preparations were confirmed using an assay for cytoplasmic lactic dehydrogenase (LDH) in the presence of PNADH (Wroblewski & LaDue, Proc. Soc. Exp. Biol. Med. 1955, (90), 210-213.
# NIH 3T3 cells [2] = assay: Cellular uptake of Cy3 linked to carrier peptide (plate reader, fluorescence and confocal microscopy); format: cell-based, Mouse
# Protocol: Mouse fibroblasts (NIH 3T3) or human ovary adenocarcinoma (SK-OV) cells were cultured in Dulbecco's modified Eagle's medium (DMEM) supplemented with 10% (v/v) foetal calf serum (FCS), 4 mM L-glutamine, 100 U/ml penicillin and 100 μg/ml streptomycin. NIH 3T3 cells were grown on 96-well tissue culture plates (Costar Inc.) or WillCo-dishes (glass-bottomed dishes, with 0.17 mm cover glass for inverted microscopes) (WillCo), before treatment with carrier peptide. Cells were incubated (60 min, 5% CO2, 37° C., 95% humidity) with Cy3 linked to carrier peptide (H2N-Ala-Pro-Thr-Arg-Val-Leu-Pro-Pro-Leu-Val-Ala-Gly-Gly-Lys-OH) (SEQ ID No.6)) (range 1-100 μM). After incubation, the culture supernatant was decanted and the cells were washed. Cy3 (unlinked dye) (Amersham Pharmacia Biotech) was used as a control. Cellular fluorescence was detected using a CytoFluor multi-well plate reader (Applied Biosystems, Foster City, Calif., USA), (activating at 530 nm, emission 590 nm) (FIG. 1); a Nikon-Diaphot 300 fluorescence microscope, (activating at 490 nm, emission at 520 nm); and a Zeiss Microsystems confocal laser scanning microscope (LSM4) (activating at 515 nm, emission at 565 nm) (FIGS. 2 (a) and (b)). Cells were further studied for intracellular dye localization by a twenty-step Z-position sectional scanning of the cell (0.5 μm/section) using a 40× oil immersion lens (FIG. 3). […]
# NIH 3T3 cells [3] = assay: Flow cytometry of cells incubated with Cy3 linked to carrier peptide; format: cell-based, Mouse; details: 1 μM, 60 min
# Protocol: Mouse fibroblasts (NIH 3T3 cells) were cultured in DMEM (see above) on 24-well tissue culture plates (Costar Inc.). Cells were incubated (60 min, 5% CO2, 37° C., 95% humidity) with Cy3 (1 μM) linked to carrier peptide (H2N-Ala-Pro-Thr-Arg-Val-Leu-Pro-Pro-Leu-Val-Ala-Gly-Gly-Lys-OH (SEQ ID No.6)). After incubation, the culture supernatant was decanted and the cells washed. Cells were trypsinised (0.25% w/v, 5 min) and re-suspended in PBS, before analysis by flow cytometry (see below). Untreated cells and Cy3 only (unlinked dye) (Amersham Pharmacia Biotech) were used as controls.
# All samples were analyzed on a FACSCalibur Flow Cytometry System (Becton Dickinson, San Jose, Calif., USA) with CellQuest software. The instrument is equipped with a 488 nm argon-ion laser and 5 detection parameters. There are 2 scatter detectors, known as forward scatter (FSC) and side scatter (SSC) which provide information about cellular size and internal complexity, respectively. In addition, there are three relative fluorescence intensity detectors. Cy3 labelling was monitored with the second fluorescence detector (FL2) fitted with a 585/42 nm filter. […]
# Histogram markers were set so that only 2-3% of the recorded events were past the FL2 channel marker 30 for the dye only control.
# NIH 3T3 cells [4] = assay: Cellular delivery of nuclear localization sequence (confocal microscopy); format: cell-based, Mouse; details: overnight incubation, FIG. 10
# Protocol: NIH 3T3 cells were cultured (see above) on WillCo-dishes (glass-bottomed dishes, with 0.17 mm cover glass for inverted microscopes) (WillCo), before treatment with carrier peptide linked to the nuclear localization sequence. Confluent NIH 3T3 cells were incubated (overnight, 5% CO2, 37° C., 95% humidity) in the presence of Cy3-[…]amide, before washing (×3) with PBS, and visualization using a Zeiss Microsystems confocal laser scanning microscope (LSM4) (activating at 515 nm, emission at 565 nm). Controls included Cy3 linked to carrier peptide (Cy3-Ala-Pro-Thr-Arg-Val-Leu-Pro-Pro-Leu-Val-Ala-Gly-Gly-Lys-OH), and unlabelled Cy3 (unlinked dye) (Amersham Pharmacia Biotech).
substance,measurement,setting,value
Ac-Ala-Pro-Thr-Arg-Val-Leu-Pro-Pro-Leu-Val-Ala-Gly-Gly-Lys(Cy5Q)-amide (Ac-APTRVLPPLVAGGK(Cy5Q)-NH2) [carrier peptide linked to Cy5Q],substrate conversion (Cy5Q fluorescence),parental SK-OV cells,Little conversion
same,cellular uptake and substrate conversion (Cy5Q fluorescence),[1]; FIG. 9,significant cellular internalization and substrate conversion
same,cellular uptake and substrate conversion (Cy5Q fluorescence),"[1]; FIG. 9, listed as delivery peptide linked to Cy5Q",significant cellular uptake and substrate conversion
"Cy3 linked to carrier peptide (SEQ ID No.4): Cy3 dye linked through NHS ester to carrier peptide H2N-Ala-Pro-Thr-Arg-Val-Pro-Leu-Pro-Leu-Pro-Val-Gly-Gly-Lys-OH (APTRVPLPLPVGGK-OH; also: Cy3 dye linked through NHS ester, site not given here)",delivered dye in the cytosol (supernatant fraction after digitonin),NIH 3T3,significant amount of delivered agent in the cytosol; also recorded: significant amount of delivered dye into the cytosol
"Cy3 linked to carrier peptide (SEQ ID No.5): Cy3 dye linked through NHS ester to carrier peptide H2N-Ala-Pro-Thr-Arg-Ala-Val-Leu-Pro-Leu-Ala-Val-Gly-Gly-Lys-OH (APTRAVLPLAVGGK-OH; also: Cy3 dye linked through NHS ester, site not given here)",delivered dye in the cytosol (supernatant fraction after digitonin),NIH 3T3,significant amount of delivered agent in the cytosol; also recorded: significant amount of delivered dye into the cytosol
"Cy3 linked to carrier peptide (SEQ ID No.7): Cy3 dye linked through NHS ester to carrier peptide H2N-Ala-Pro-Thr-Arg-Val-Leu-Leu-Pro-Leu-Leu-Val-Gly-Gly-Lys-OH (APTRVLLPLLVGGK-OH; also: Cy3 dye linked through NHS ester, site not given here)",delivered dye in the cytosol (supernatant fraction after digitonin),NIH 3T3,significant amount of delivered agent in the cytosol; also recorded: significant amount of delivered dye into the cytosol
Cy3-Ala-Pro-Thr-Arg-Val-Leu-Pro-Pro-Leu-Val-Ala-Gly-Gly-Lys-OH (Cy3-APTRVLPPLVAGGK-OH),intracellular dye localization by twenty-step Z-position sectional scanning,"NIH 3T3 cells [2]; confocal, 0.5 μm/section, FIG. 3","dye staining in the central portion of the cell, and little staining on the periphery or cell membrane"
same,uptake of Cy3 into NIH 3T3 cells (cellular fluorescence),"NIH 3T3 cells [2]; range 1-100 μM, 60 min, CytoFluor plate reader, FIG. 1",dose-dependent uptake
same,delivered dye in the cytosol (supernatant fraction after digitonin),NIH 3T3,significant amount of delivered agent in the cytosol; also recorded: significant amount of delivered dye into the cytosol
same,uptake of Cy3 across the cell population (dot plots),NIH 3T3 cells [3]; FIG. 5,homogeneous uptake
same,increase in fluorescence geometric mean between dye control and test cells,"NIH 3T3 cells [3]; FL2 histogram, FIG. 6",approximately 5 fold
Cy3-Ser-Ser-Asp-Asp-Glu-Ala-Thr-Ala-Ser-Asp-Gln-His-Ser-Thr-Pro-Pro-Lys-Lys-Lys-Arg-Lys-Val-Glu-Asp-Pro-Lys-Ala-Pro-Thr-Arg-Val-Leu-Pro-Pro-Leu-Val-Ala-Gly-Gly-Lys-amide,nuclear staining compared with the controls,NIH 3T3 cells [4],more pronounced nuclear staining

# Source: patent publication US20030113819A1, “Carrier peptide and method for delivery of molecules into cells” (priority 2002, published 2003)
